Measurements as given in patent US8999938B2, “Ophthalmic lipophilic drug delivery vehicle formulations” (GNT, LLC, priority 2013, dated 2015).
Read-outs that look alike come from different tables or passages of the source.

Assays:
[1] = Excerpt: Oily vehicles such as castor oil solubilize, but these have poor compliance.
[2] = for max soluble concentration: in water
Excerpt: The solubility of α-2 agonists, in particular, decreases exponentially at an increased pH.

concentration solubilized in the provided compositions [1]: ≥ 0.15% | max soluble concentration ([2]; pH solution 6.0): 0.195% | max soluble concentration ([2]; pH solution 6.4): 0.060% | max soluble concentration ([2]; pH solution 7.0): 0.023% | max soluble concentration ([2]; pH solution 7.4): 0.015% | max soluble concentration ([2]; pH solution 8.0): 0.013% | degree of solubility ([2]; pH of 4.0 to 6.0): very high degree of solubility
Structure (SMILES): Cc1cccc([C@H](C)c2cnc[nH]2)c1C [dexmedetomidine]
